Assays:
Conditions in all cases: 72 h
HepG2 [1] = assay: drug sensitivity score (DSS) for viability; higher = more toxic; extreme values may be limits of the assay
Vero E6 [2] = assay: as above
Caco-2 [3] = assay: as above
Calu-3 [4] = assay: as above
U2OS [5] = assay: as above
HepG2 [6] = assay: cell viability relative to DMSO; higher = less toxic
Vero E6 [7] = assay: as above
Caco-2 [8] = assay: as above
Calu-3 [9] = assay: as above
U2OS [10] = assay: as above
HepG2 [11] = assay: relative viability EC50 (midpoint between 100% and the lowest measured viability); higher = less toxic
Vero E6 [12] = assay: as above
Caco-2 [13] = assay: as above
Calu-3 [14] = assay: as above
U2OS [15] = assay: as above

Structure (SMILES) | drug sensitivity score (HepG2 [1]) | drug sensitivity score (Vero E6 [2]) | drug sensitivity score (Caco-2 [3]) | drug sensitivity score (Calu-3 [4]) | drug sensitivity score (U2OS [5]) | cell viability (HepG2 [6]; 1 nM) | cell viability (HepG2 [6]; 10 nM) | cell viability (HepG2 [6]; 100 nM) | cell viability (HepG2 [6]; 1000 nM) | cell viability (HepG2 [6]; 10000 nM) | cell viability (Vero E6 [7]; 1 nM) | cell viability (Vero E6 [7]; 10 nM) | cell viability (Vero E6 [7]; 100 nM) | cell viability (Vero E6 [7]; 1000 nM) | cell viability (Vero E6 [7]; 10000 nM) | cell viability (Caco-2 [8]; 1 nM) | cell viability (Caco-2 [8]; 10 nM) | cell viability (Caco-2 [8]; 100 nM) | cell viability (Caco-2 [8]; 1000 nM) | cell viability (Caco-2 [8]; 10000 nM) | cell viability (Calu-3 [9]; 1 nM) | cell viability (Calu-3 [9]; 10 nM) | cell viability (Calu-3 [9]; 100 nM) | cell viability (Calu-3 [9]; 1000 nM) | cell viability (Calu-3 [9]; 10000 nM) | cell viability (U2OS [10]; 1 nM) | cell viability (U2OS [10]; 10 nM) | cell viability (U2OS [10]; 100 nM) | cell viability (U2OS [10]; 1000 nM) | cell viability (U2OS [10]; 10000 nM) | relative viability EC50 (HepG2 [11]) | relative viability EC50 (Vero E6 [12]) | relative viability EC50 (Caco-2 [13]) | relative viability EC50 (Calu-3 [14]) | relative viability EC50 (U2OS [15])
CCCN(C/C=C/I)C1CCc2cccc(O)c2C1 (stereo not given) [8-hydroxy-PIPAT] | 0.2 | 0 | 0 | 0 | 0 | 101% | 105% | 111% | 104% | 83.4% | 97.7% | 99.7% | 100% | 99.3% | 92.9% | 107% | 95.3% | 100% | 93.8% | 101% | 101% | 101% | 112% | 103% | 99.5% | 103% | 100% | 102% | 97.6% | 97.8% | > 10 µM | > 10 µM | > 10 µM | > 10 µM | > 10 µM
C=C(C)[C@@H]1CC[C@]2(C(=O)O)CC[C@]3(C)[C@H](CC[C@@H]4[C@@]5(C)CC[C@H](OC(=O)CC(C)(C)C(=O)O)C(C)(C)[C@@H]5CC[C@]43C)[C@@H]12 [bevirimat-dimeglumine] | 0 | 0 | 0 | 0 | 0 | 91.3% | 99.5% | 103% | 94.1% | 96.7% | 96.8% | 103% | 96.9% | 94.7% | 102% | 92% | 95.6% | 94.1% | 102% | 94.9% | 99.1% | 103% | 102% | 92.9% | 110% | 99.4% | 98.5% | 99.6% | 98.2% | 96.8% | > 10 µM | > 10 µM | > 10 µM | > 10 µM | > 10 µM
Cc1c(C)c2c(c(C)c1O)CC[C@@](C)(CCC[C@H](C)CCC[C@H](C)CCCC(C)C)O2 [vitamin-E] | 0 | 0 | 0 | 0 | 0 | 93.6% | 100% | 91% | 106% | 108% | 86.5% | 99.4% | 88.5% | 101% | 103% | 101% | 89.8% | 97.1% | 94.8% | 98.5% | 98.9% | 82.6% | 102% | 99.3% | 91.7% | 99.9% | 95.1% | 103% | 94.9% | 97.2% | > 10 µM | > 10 µM | > 10 µM | > 10 µM | > 10 µM
O=C1CCc2cc(OCCCCc3nnnn3C3CCCCC3)ccc2N1 [cilostazol] | 0 | 0 | 0 | 0 | 0 | 114% | 99.9% | 110% | 99.4% | 92.6% | 91.5% | 99% | 96.9% | 101% | 95.7% | 97.5% | 104% | 99.7% | 101% | 90.3% | 94.3% | 107% | 99.1% | 115% | 111% | 93.2% | 96.9% | 94% | 96.5% | 95% | > 10 µM | > 10 µM | > 10 µM | > 10 µM | > 10 µM
C=CCN1CC[C@]23c4c5ccc(O)c4O[C@H]2[C@@H](OCCOCCOCCOCCOCCOCCOCCOC)CC[C@@]3(O)[C@H]1C5 [naloxegol] | 0 | 0 | 0 | 0 | 0 | 99.8% | 94% | 97.8% | 93.6% | 107% | 101% | 96.7% | 103% | 97.5% | 105% | 107% | 97.9% | 98.5% | 104% | 105% | 97.1% | 107% | 91.7% | 101% | 88.7% | 93.9% | 99.1% | 95% | 98.8% | 96.5% | > 10 µM | > 10 µM | > 10 µM | > 10 µM | > 10 µM
C/C=C1\NC(=O)[C@H]2CSSCC/C=C/[C@H](CC(=O)N[C@H](C(C)C)C(=O)N2)OC(=O)[C@H](C(C)C)NC1=O [romidepsin] | 39.4 | 20 | 28.5 | 37 | 35.1 | 87.1% | 31.9% | 0.5% | -0.4% | 0.1% | 98.1% | 102% | 87.8% | 0.1% | -0.1% | 104% | 124% | 6.6% | 1.4% | 0.2% | 92.5% | 39.4% | 8.7% | 6.3% | 2.5% | 96.9% | 55.5% | 5.6% | 0.5% | 0.2% | 0.0052 µM | 0.217 µM | 0.0451 µM | 0.0068 µM | 0.0117 µM
CCCCOc1ccc(C(=O)CCN2CCCCC2)cc1 [dyclonine] | 0 | 0 | 1.1 | 0 | 0 | 96.6% | 93.3% | 106% | 98% | 94.7% | 94.7% | 102% | 99% | 98.6% | 97.3% | 102% | 108% | 101% | 85.7% | 94% | 96% | 109% | 99.2% | 109% | 102% | 99.9% | 103% | 94.3% | 100% | 95.5% | > 10 µM | > 10 µM | > 10 µM | > 10 µM | > 10 µM

Source: the supplement of paper PMC13380429
